Experimental data published in US11912701B2, “Protein kinase inhibitors for promoting liver regeneration or reducing or preventing hepatocyte death” (HEPAREGENIX GMBH, priority 2018, dated 2024).

Experiments:
[1] = target: T1, MKK4 (Homo sapiens, UniProt P45985); assay: KINOMEscan competition binding assay, MKK4; details: residual percent of control binding (PoC) at 100 nM
T1 construct: S84/D399; host or cells: HEK-293
T1 sequence (P45985 84-399): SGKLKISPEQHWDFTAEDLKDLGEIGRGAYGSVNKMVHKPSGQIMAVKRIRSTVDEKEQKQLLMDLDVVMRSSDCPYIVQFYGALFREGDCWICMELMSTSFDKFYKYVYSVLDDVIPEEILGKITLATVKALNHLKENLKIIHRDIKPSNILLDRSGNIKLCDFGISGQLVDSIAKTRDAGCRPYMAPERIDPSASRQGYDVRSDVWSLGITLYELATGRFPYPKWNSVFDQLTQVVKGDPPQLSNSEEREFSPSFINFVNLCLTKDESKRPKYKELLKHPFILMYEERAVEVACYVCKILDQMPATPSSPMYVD
Summary of the method: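 Tested at 100 nM and reported as percent of control binding (PoC). MKK4 was produced in HEK-293 cells and DNA-tagged. Displacement from ligand-coated, blocked beads was read by qPCR of eluted kinase.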

[2] = target: T2, BRaf (Homo sapiens, UniProt P15056); assay: KINOMEscan competition binding assay, BRaf; details: ratio PoC (off-target)/PoC (MKK4)
T2 construct: purchased ProQinase GmbH, Freiburg, Germany (33PanQinase Assay Service)
T2 sequence (P15056 whole entry, species assumed): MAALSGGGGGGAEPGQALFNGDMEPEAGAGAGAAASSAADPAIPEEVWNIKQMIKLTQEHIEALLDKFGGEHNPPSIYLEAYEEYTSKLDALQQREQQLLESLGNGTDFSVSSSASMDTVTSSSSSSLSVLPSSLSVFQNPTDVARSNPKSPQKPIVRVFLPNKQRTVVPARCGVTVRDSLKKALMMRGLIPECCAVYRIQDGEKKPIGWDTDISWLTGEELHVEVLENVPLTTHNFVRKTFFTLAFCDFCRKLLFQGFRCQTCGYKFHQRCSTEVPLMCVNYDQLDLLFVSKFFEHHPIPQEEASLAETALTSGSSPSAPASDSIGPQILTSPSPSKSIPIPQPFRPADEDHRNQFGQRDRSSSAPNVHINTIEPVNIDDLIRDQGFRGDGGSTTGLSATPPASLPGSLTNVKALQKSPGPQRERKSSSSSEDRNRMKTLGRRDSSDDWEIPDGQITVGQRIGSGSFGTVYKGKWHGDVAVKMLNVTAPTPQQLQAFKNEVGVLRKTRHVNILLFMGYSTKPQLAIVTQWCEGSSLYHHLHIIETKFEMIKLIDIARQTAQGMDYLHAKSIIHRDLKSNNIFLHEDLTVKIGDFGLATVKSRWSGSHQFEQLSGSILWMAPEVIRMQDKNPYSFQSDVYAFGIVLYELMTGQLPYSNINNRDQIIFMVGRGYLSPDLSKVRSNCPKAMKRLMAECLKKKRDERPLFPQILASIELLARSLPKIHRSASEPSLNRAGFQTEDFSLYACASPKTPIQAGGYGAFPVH
Summary of the method: (§1)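 DNA-tagged kinases expressed in HEK-293 cells compete between immobilized ligand on blocked beads and test compound at 100 nM; kinase retained on beads quantified by qPCR of the tag.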

[3] = target: T3, MKK4 (Homo sapiens, UniProt P45985); assay: 33PanQinase enzyme assay, MKK4; type: biochemical; details: assay 'IC50'; read-out: Potency MKK4 (IC50)
T3 construct: purchased ProQinase GmbH, Freiburg, Germany (33PanQinase Assay Service)
T3 sequence (P45985 1-399): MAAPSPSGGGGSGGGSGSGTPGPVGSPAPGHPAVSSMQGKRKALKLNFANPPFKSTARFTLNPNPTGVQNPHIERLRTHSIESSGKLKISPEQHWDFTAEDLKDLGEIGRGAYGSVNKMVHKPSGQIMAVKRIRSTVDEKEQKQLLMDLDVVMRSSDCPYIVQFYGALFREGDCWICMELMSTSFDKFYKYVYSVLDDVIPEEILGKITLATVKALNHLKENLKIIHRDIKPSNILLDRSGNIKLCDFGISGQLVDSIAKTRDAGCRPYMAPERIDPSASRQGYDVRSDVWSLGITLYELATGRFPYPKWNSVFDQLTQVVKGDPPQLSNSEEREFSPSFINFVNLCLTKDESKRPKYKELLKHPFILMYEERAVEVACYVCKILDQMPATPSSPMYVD
Summary of the method: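 Inhibition measured as 33Pi transfer to substrate after a 60-min, 30 °C reaction, acid-stopped and scintillation-counted.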

[4] = target: T4, MKK7 (Homo sapiens, UniProt O14733); assay: KINOMEscan competition binding assay, MKK7; set-up: M1/R419; host or cells: HEK-293; details: ratio PoC (off-target)/PoC (MKK4)
T4 sequence (O14733 1-419): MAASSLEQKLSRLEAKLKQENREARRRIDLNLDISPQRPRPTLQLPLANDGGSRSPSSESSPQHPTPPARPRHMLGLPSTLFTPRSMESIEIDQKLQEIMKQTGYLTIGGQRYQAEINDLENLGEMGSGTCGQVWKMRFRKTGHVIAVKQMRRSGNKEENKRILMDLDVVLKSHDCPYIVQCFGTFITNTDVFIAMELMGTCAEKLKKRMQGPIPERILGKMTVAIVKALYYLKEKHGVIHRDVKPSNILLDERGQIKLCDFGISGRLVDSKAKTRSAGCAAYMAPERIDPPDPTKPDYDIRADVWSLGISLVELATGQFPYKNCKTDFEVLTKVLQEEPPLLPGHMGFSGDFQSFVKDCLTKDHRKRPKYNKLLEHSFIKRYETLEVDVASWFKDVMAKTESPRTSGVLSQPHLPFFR
Summary of the method: as §1

[5] = target: T5, JNK1 (Homo sapiens, UniProt P45983); assay: KINOMEscan competition binding assay, JNK1; set-up: M1/Q384; host or cells: HEK-293; details: ratio PoC (off-target)/PoC (MKK4)
Summary of the method: as §1
Target sequence in this assay (P45983 1-384 isoform P45983-2): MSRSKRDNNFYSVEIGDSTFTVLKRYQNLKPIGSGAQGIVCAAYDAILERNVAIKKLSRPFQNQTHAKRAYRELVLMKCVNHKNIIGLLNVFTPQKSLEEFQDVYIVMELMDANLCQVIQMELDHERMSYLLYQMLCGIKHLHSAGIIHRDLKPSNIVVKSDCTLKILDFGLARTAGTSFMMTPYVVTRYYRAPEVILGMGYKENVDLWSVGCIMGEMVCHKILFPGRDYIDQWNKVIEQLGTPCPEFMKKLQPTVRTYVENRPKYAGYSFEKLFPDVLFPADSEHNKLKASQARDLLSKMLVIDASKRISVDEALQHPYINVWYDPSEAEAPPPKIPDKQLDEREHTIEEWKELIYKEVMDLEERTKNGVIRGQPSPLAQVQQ

[6] = target: T5, JNK1; assay: 33PanQinase enzyme assay, JNK1; type: biochemical; set-up: purchased ProQinase GmbH, Freiburg, Germany (33PanQinase Assay Service); details: ratio IC50(JNK1)/IC50(MKK4)
Summary of the method: (§2)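 33Pi incorporation, read by microplate scintillation counting, measured kinase activity after 60 min at 30 °C. Reactions were quenched with 2% (v/v) H3PO4 and washed with 0.9% NaCl. IC50 derived by least-squares fitting; single doses reported as % residual activity.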
Target sequence in this assay (P45983 whole entry): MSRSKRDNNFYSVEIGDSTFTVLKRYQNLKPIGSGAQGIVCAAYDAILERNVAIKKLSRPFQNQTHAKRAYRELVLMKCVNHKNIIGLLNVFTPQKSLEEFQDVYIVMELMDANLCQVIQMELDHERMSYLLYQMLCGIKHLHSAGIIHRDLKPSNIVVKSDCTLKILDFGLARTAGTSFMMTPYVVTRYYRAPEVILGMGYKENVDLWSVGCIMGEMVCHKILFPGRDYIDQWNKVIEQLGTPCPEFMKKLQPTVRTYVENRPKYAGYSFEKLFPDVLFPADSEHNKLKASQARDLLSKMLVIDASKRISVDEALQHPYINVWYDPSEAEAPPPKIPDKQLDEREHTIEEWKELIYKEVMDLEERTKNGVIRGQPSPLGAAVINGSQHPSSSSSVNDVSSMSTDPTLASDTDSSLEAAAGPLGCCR

[7] = target: T4, MKK7; assay: 33PanQinase enzyme assay, MKK7; type: biochemical; set-up: purchased ProQinase GmbH, Freiburg, Germany (33PanQinase Assay Service); details: ratio IC50(MKK7)/IC50(MKK4)
Summary of the method: as §2

| Compound | MKK4 [% Ctrl @ 100 nM [1] | selectivity based on % Ctrl @100 nM vs. Braf [2] | IC50 [3] [µM] | selectivity based on % Ctrl @100 nM vs. MKK7 [4] | selectivity based on % Ctrl @100 nM vs. JNK1 [5] | Selectivity JNK1, IC50(off-target)/IC50(MKK4) [6] | Selectivity IVIKK7, IC50(off-target)/IC50(MKK4) [7] |
| --- | --- | --- | --- | --- | --- | --- | --- |
| CCCS(=O)(=O)Nc1ccc(F)c(C(=O)c2c[nH]c3ncc(C4CCNCC4)cc23)c1F [Example 241, N-(2,4-difluoro-3-(5-(piperidin-4-yl)-1-pyrrolo[2,3-b]pyridine-3-carbonyl)phenyl)propane-1-sulfonamide] | + (3 ≤ PoC < 30) | ◯ (3 ≥ Ratio) | 1 to 10 | + (10 ≥ ratio > 3) | + (10 ≥ ratio > 3) | ◯ (3 ≥ IC50(off-target)/IC50(MKK4)) | + (10 ≥ IC50(off-target)/IC50(MKK4) > 3) |
| CN(C)c1ncc(-c2cnc3[nH]cc(C(=O)c4ccc(F)c(NS(=O)(=O)CCC(F)(F)F)c4F)c3c2)cn1 [Example 178, N-(3-(5-(2-(dimethylamino)pyrimidin-5-yl)-1H-pyrrolo[2,3-b]pyridine-3-carbonyl)-2,6-difluorophenyl)-3,3,3-trifluoropropane-1-sulfonamide] | +++ (PoC < 1) | +++ (Ratio > 100) | < 0.1 | +++ (Ratio > 100) | +++ (Ratio > 100) | +++ (IC50(off-target)/IC50(MKK4) > 100) | +++ (IC50(off-target)/IC50(MKK4) > 100) |
| CCCS(=O)(=O)Nc1ccc(F)c(C(=O)c2c[nH]c3ncc(-c4ccnnc4)cc23)c1F [Example 49] | +++ (PoC < 1) | ◯ (3 ≥ Ratio) | 1 to 10 | +++ (Ratio > 100) | +++ (Ratio > 100) | ++ (100 ≥ IC50(off-target)/IC50(MKK4) > 10) | ++ (100 ≥ IC50(off-target)/IC50(MKK4) > 10) |
| CS(=O)(=O)Nc1c(F)ccc(C(=O)c2c[nH]c3ncc(-c4ccncc4)cc23)c1F [Example 234, N-(2,6-difluoro-3-(5-(pyridin-4-yl)-1H-pyrrolo[2,3-b]pyridine-3-carbonyl)phenyl)methanesulfonamide] | +++ (PoC < 1) | +++ (Ratio > 100) | < 0.1 | +++ (Ratio > 100) | +++ (Ratio > 100) | +++ (IC50(off-target)/IC50(MKK4) > 100) | +++ (IC50(off-target)/IC50(MKK4) > 100) |
| CCCS(=O)(=O)Nc1ccc(F)c(C(=O)c2c[nH]c3ncc(-c4cnc[nH]4)cc23)c1F [Example 83, N-(3-(5-(1H-imidazol-5-yl)-1H-pyrrolo[2,3-b]pyridine-3-carbonyl)-2,4-difluorophenyl)propane-1-sulfonamide] | +++ (PoC < 1) | ◯ (3 ≥ Ratio) | 0.1 to 1 | +++ (Ratio > 100) | +++ (Ratio > 100) | ◯ (3 ≥ IC50(off-target)/IC50(MKK4)) | ++· |
| CCCS(=O)(=O)Nc1ccc(F)c(C(=O)c2c[nH]c3ncc(-c4ccn[nH]4)cc23)c1F [Example 84, N-(3-(5-(1H-pyrazol-5-yl)-1H-pyrrolo[2,3-b]pyridine-3-carbonyl)-2,4-difluorophenyl)propane-1-sulfonamide] | +++ (PoC < 1) | ◯ (3 ≥ Ratio) | 0.1 to 1 | +++ (Ratio > 100) | +++ (Ratio > 100) | ◯ (3 ≥ IC50(off-target)/IC50(MKK4)) | +++ (IC50(off-target)/IC50(MKK4) > 100) |
